Assay results published in patent publication US7470716B2, “Imidazoles and triazoles, their preparation, and their use as pharmaceutical compositions” (Boehringer Ingelheim International GmbH, priority 2004, dated 2008).

Assays:
[1] = molecular target: T1, DPP-IV (Homo sapiens, UniProt P27487); assay: DPP-IV assay with Caco-2 cell extract as DPP IV source, AFC substrate, fluorescence; format: biochemical; conditions: extract of human colon carcinoma cell line Caco-2; substrate 100 μM; 60 minutes at ambient temperature; read-out: DPP IV inhibition IC50
T1 construct: an extract of the human colon carcinoma cell line Caco-2 is used as the DPP IV source; endogenous in cells; host or cells: Caco-2 (human colon carcinoma), differentiated to induce DPP-IV expression; Nonidet-P40 solubilised extract
T1 sequence (P27487 whole entry): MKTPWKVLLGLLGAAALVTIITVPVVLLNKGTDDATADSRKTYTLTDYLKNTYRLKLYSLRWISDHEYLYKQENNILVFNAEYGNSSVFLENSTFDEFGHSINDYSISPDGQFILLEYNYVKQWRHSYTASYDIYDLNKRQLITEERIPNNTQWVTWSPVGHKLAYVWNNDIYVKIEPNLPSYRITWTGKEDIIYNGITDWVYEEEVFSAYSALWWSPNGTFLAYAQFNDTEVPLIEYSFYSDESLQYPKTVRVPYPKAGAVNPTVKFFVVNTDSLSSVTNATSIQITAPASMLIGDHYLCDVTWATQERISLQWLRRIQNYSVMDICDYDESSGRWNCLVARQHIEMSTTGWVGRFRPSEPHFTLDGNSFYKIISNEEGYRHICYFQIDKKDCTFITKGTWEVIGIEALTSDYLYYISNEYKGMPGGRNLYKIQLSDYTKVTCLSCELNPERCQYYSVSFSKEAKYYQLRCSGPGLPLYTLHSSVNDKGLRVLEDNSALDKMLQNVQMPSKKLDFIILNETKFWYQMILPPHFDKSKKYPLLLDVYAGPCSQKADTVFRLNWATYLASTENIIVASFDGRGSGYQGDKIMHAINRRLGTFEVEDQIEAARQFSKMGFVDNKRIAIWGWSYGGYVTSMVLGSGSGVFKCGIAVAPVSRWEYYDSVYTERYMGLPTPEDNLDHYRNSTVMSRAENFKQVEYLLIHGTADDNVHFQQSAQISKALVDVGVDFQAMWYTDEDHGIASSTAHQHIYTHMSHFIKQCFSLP
Method: The cell extract was obtained from cells solubilised in a buffer (10 mM Tris HCl, 0.15 M NaCl, 0.04 t.i.u. aprotinin, 0.5% Nonidet-P40, pH 8.0) by centrifugation at 35,000 g for 30 minutes at 4° C. (to remove cell debris).
The DPP-IV assay was carried out as follows:
50 μl of substrate solution (AFC; AFC is amido-4-trifluoromethylcoumarin), final concentration 100 μM, were placed in black microtitre plates. 20 μl of assay buffer (final concentrations 50 mM Tris HCl pH 7.8, 50 mM NaCl, 1% DMSO) was pipetted in. The reaction was started by the addition of 30 μl of solubilised Caco-2 protein (final concentration 0.14 μg of protein per well). The test substances under investigation were typically added prediluted to 20 μl, while the volume of assay buffer was then reduced accordingly. The reaction was carried out at ambient temperature, the incubation period was 60 minutes. […] Dummy values (corresponding to 0% activity) were obtained in mixtures with no Caco-2 protein (volume replaced by assay buffer), control values (corresponding to 100% activity) were obtained in mixtures without any added substance.

[2] = tested on: rats; assay: Tolerability: behavior of rats after oral administration; format: in vivo; conditions: oral administration of 10 mg/kg

Q: `CC#CCn1c(C(=O)NCc2nc3ccccc3c3ccccc23)cnc1N1CCCC(N)C1` (centres unmarked) [1(2), 1-(but-2-ynyl)-2-(3-amino-piperidin-1-yl)-5-(phenanthridin-6-ylmethylaminocarbonyl)-1H-imidazole] was tested. Which IC50 [1] did it give?
A: Its IC50 is 41 nM.

Q: `CC(C)=CCn1c(C(=O)NCc2cccc3ccccc23)nnc1N1CCCNCC1` [2(2), 3-([1,4]diazepan-1-yl)-4-(3-methyl-but-2-enyl)-5-(naphth-1-ylmethylaminocarbonyl)-4H-[1,2,4]triazole] was tested. Which IC50 [1] did it give?
A: The IC50 was 386 nM.

Q: `NC1CCCN(c2nnc(C(=O)NCc3cccc4ccccc34)n2Cc2ccccc2)C1` (centres unmarked) [3(1), 3-(3-amino-piperidin-1-yl)-4-benzyl-5-(naphth-1-ylmethylaminocarbonyl)-4H-[1,2,4]triazole] was tested. Which IC50 [1] did it give?
A: Its IC50 is 101 nM.

Q: For `CC#CCn1c(C(=O)NCc2ccc3ncccc3c2)nnc1N1CCCC(N)C1` (centres unmarked) [4(2), 3-(3-amino-piperidin-1-yl)-4-(but-2-ynyl)-5-(quinolin-6-ylmethylaminocarbonyl)-4H-[1,2,4]triazole], which IC50 [1] is on record?
A: Its IC50 is 36 nM.

Q: For `CC(C)=CCn1c(C(=O)NCc2cccc3ccccc23)nnc1N1CCNCC1` [Example 2, 3-(piperazin-1-yl)-4-(3-methyl-but-2-enyl)-5-(naphth-1-ylmethylaminocarbonyl)-4H-[1,2,4]triazole], which IC50 [1] is on record?
A: The IC50 was 367 nM.

Q: `CC(C)=CCn1c(C(=O)NCc2cccc3ccccc23)nnc1N1CCCC(N)C1` (centres unmarked) [Example 3, 3-(3-amino-piperidin-1-yl)-4-(3-methyl-but-2-enyl)-5-(naphth-1-ylmethylaminocarbonyl)-4H-[1,2,4]triazole] was tested. Which IC50 [1] did it give?
A: The IC50 was 101 nM.

Q: `CC#CCn1c(C(=O)NCc2nc(C)cc3ccccc23)nnc1N1CCCC(N)C1` (centres unmarked) [Example 4(1), 3-(3-amino-piperidin-1-yl)-4-(but-2-ynyl)-5-(3-methyl-isoquinolin-1-ylmethylaminocarbonyl)-4H-[1,2,4]triazole] was tested. Which “changes in the behavior of rats (tolerability)” value [2] did it give?
A: The value was “no changes in the behavior of rats could be detected”.

Q: With `NC1CCCN(c2nnc(C(=O)NCc3cccc4ccccc34)n2Cc2ccccc2Cl)C1` (centres unmarked) [Example 4, 3-(3-amino-piperidin-1-yl)-4-(2-chloro-benzyl)-5-(naphth-1-ylmethylaminocarbonyl)-4H-[1,2,4]triazole] as the molecule, how does the IC50 [1] read?
A: The IC50 was 382 nM.
